Assay results from patent US20200031785A1, “METHODS FOR TREATING CHRONIC PAIN AND OPIOID DEPENDENCE USING ADENYLYL CYCLASE INHIBITORS” (Purdue Research Foundation, priority 2017, published 2020).

These compounds were tested against T1, hAC1 (Homo sapiens, UniProt Q08828) (assay: Cyclic AMP accumulation in HEK cells stably expressing AC1, stimulated with A23187 (HTRF)). Conditions: HEK293; HEK-AC1 cells, 30 μM.
T1 construct: expressed in transfected cells
Assay type: cell-based
Procedure: The development and mechanistic characterization of AC1-selective small molecule inhibitors is believed to provide novel non-opioid weapons in the war on chronic pain. We identified our initial hits via screening 10,000 selected compounds from the Life Chemicals collection. The screen was carried out using HEK cells stably expressing AC1 (HEK-AC1) and cyclic AMP accumulation was stimulated using the Ca^2+ ionophore, A23187 to selectively activate AC1. Compounds with potential chemical liabilities and PAINs were removed from further evaluation (Baell and Holloway, J. Med. Chem. 2010, 53, 2719-2740).
(§1) Fresh powders of several robust inhibitors (>90% inhibition) were evaluated in multiple confirmation assays assessing the dose response relationship for inhibiting AC1 and AC8 activity. Confirmation assays used A23817 to selectively stimulate recombinant AC1 or AC8 in the HEK cell background (Cumbay and Watts (2001), J. Pharmacol Exp Ther 297:1201-1399). This approach takes advantage of one unique regulatory property of AC1 for the development of selective inhibitors. Both AC1 and AC8 are robustly activated by Ca^2+/CaM under a variety of conditions, whereas the effects of Ca^2+/CaM on AC3 are modest and conditional requiring activation by G proteins. Previous studies have identified unique Ca^2+/CaM binding domains as one possible site of interaction to achieve AC1 (vs. AC8) selectivity (Masada et al., 2012, Biochemistry 51:7917-7929).
(§2) The primary technology we employed to measure cAMP accumulation was a homogenous time-resolved fluorescence (HTRF) assay, the same technology utilized in the primary screen. […] This could be due to either 1) the chemical scaffolds are exquisitely selective toward the AC family of enzymes or 2) the library has not been screened against a sufficient number of targets. The answer is likely a combination of the two; nonetheless, the lack of biological data to date bodes well for these series and any potential off-target promiscuity.
(§3) Human embryonic kidney (HEK) cells stably expressing AC1, AC8, or AC1 with the MOR were cultured in Dulbecco's Modified Eagle Medium (Life Technologies, Grand Island, N.Y.) supplemented with 5% bovine calf serum (Hyclone, Logan, Utah), 5% fetal clone I (Hyclone), Antibiotic-Antimycotic (Life Technologies), and G418 (Invivogen, San Diego, Calif.) (HEK-AC1), or hygromycin B (Fisher Scientific, Pittsburgh, Pa.) (HEK-AC8), or G418 and puromycin (Sigma-Aldrich) (HEK-AC1/MOR). Chinese hamster ovary (CHO) cells expressing the MOR (CHO-MOR) in the PathHunter® β-Arrestin GPCR assay platform were purchased from DiscoveRx (Freemont, Calif.). Cells were grown in Ham's F12 media supplemented with 1 mM L-glutamine (Thermo Scientific, West Palm Beach, Fla.), 10% fetal bovine serum (Hyclone), 50 U/ml penicillin, 50 μg/ml streptomycin (Life Technologies), G418 and hygromycin B. Cells were grown and frozen as previously described (J. M. Conley, et al., J Vis Exp, e51218 (2014)).
(§4) Cyclic AMP accumulation was measured as previously described (Brust, et al., J. Pharmacol. Exp. Ther. 352, 480-493(2015)). Briefly, cryopreserved cells were thawed, resuspended in optiMEM (Life Technologies), and plated in white, flat bottom, low-volume, tissue culture-treated 384 well plates (PerkinElmer, Shelton, Conn.). Plates with cells were incubated in a 37° C. humidified incubator for 1 h. Inhibitors were added and plates were incubated at room temperature for 30 min followed by the addition of AC stimulants in the presence of 500 μM IBMX. Cells were incubated at room temperature for 1 h and cAMP accumulation was measured using Cisbio's cAMP kit (Cisbio Bioassays, Bedford, Mass.) according to the manufacturer's instructions.

T1 sequence (Q08828 whole entry): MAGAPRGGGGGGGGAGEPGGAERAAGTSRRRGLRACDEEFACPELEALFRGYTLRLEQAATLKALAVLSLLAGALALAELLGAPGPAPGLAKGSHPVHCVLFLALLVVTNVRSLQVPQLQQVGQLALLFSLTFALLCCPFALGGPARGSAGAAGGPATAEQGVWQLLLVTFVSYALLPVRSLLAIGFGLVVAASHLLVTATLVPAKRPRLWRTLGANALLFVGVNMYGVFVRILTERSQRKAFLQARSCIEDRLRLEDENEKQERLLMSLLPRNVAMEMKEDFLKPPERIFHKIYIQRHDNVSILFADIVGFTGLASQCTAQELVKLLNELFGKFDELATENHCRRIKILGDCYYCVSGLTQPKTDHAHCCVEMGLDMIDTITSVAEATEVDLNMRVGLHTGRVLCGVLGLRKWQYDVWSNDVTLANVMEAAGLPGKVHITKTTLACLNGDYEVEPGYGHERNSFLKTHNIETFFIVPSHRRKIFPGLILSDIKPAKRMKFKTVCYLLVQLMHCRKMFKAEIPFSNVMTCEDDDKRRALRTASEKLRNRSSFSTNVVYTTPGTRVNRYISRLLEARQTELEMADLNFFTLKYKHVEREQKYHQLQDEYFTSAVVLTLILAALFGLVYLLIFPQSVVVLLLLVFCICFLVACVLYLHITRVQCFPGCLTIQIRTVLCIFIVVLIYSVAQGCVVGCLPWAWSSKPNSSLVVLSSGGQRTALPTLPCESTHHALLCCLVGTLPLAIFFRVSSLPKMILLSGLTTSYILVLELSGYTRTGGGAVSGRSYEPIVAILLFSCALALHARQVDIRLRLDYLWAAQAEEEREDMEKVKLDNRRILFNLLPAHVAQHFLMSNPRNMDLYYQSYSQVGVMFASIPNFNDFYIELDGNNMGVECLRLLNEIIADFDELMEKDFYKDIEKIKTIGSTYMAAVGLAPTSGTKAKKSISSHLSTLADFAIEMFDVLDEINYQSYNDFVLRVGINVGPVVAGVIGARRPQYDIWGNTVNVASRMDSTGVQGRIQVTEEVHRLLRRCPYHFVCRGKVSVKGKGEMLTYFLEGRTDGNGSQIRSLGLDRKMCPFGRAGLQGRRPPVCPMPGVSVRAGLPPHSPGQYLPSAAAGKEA

SMILES	inhibition at 30 µM [%]
Cc1ccc(C(=O)Nc2nnc(C3CCCCC3)o2)cc1 [AC10032, N-(5-cyclohexyl-1,3,4-oxadiazol-2-yl)-4-methylbenzamide]	78 ± 4
COc1cccc(C(=O)Nc2nnc(-c3ccc(F)cc3)o2)c1 [AC10034, N-(5-(4-fluorophenyl)-1,3,4-oxadiazol-2-yl)-3-methoxybenzamide]	79 ± 9
O=C(Nc1nnc(-c2ccc(F)cc2)o1)c1ccc(S(=O)(=O)N2CCCCC2)cc1 [AC10036, N-(5-(4-fluorophenyl)-1,3,4-oxadiazol-2-yl)-4-(piperidin-1-ylsulfonyl)benzamide]	83 ± 6
COc1cccc(C(=O)Nc2nnc(-c3ccc4c(c3)OCCO4)o2)c1 [AC10038, N-(5-(2,3-dihydrobenzo[b][1,4]dioxin-6-yl)-1,3,4-oxadiazol-2-yl)-3-methoxybenzamide]	84 ± 5
COc1ccc(C(=O)Nc2nnc(-c3ccc(F)cc3)o2)cc1 [AC10039, N-(5-(4-fluorophenyl)-1,3,4-oxadiazol-2-yl)-4-methoxybenzamide]	73 ± 4
COc1ccc(C(=O)Nc2nnc(C3CCCCC3)o2)cc1 [AC10040, N-(5-cyclohexyl-1,3,4-oxadiazol-2-yl)-4-methoxybenzamide]	73 ± 1
CCc1ccc(C(=O)Nc2nnc(-c3ccc(F)cc3)o2)cc1 [AC10044, 4-ethyl-N-(5-(4-fluorophenyl)-1,3,4-oxadiazol-2-yl)benzamide]	88 ± 4

Second part, the compound after the results:

inhibition at 30 µM [%]	SMILES
88 ± 3	CC(C)Oc1ccc(C(=O)Nc2nnc(-c3ccc4c(c3)OCCO4)o2)cc1 [AC10037, N-(5-(2,3-dihydrobenzo[b][1,4]dioxin-6-yl)-1,3,4-oxadiazol-2-yl)-4-isopropoxybenzamide]
80 ± 10	Cc1ccc(C(=O)Nc2nnc(-c3ccc(F)cc3)o2)cc1 [AC10031, N-(5-(4-fluorophenyl)-1,3,4-oxadiazol-2-yl)-4-methylbenzamide]
91 ± 4	CCc1ccc(C(=O)Nc2nnc(C3CCCCC3)o2)cc1 [AC10045, N-(5-cyclohexyl-1,3,4-oxadiazol-2-yl)-4-ethylbenzamide]
94 ± 2	COc1ccc(C(=O)Nc2nnc(-c3ccc4c(c3)CCCC4)o2)cc1 [AC10041, 4-methoxy-N-(5-(5,6,7,8-tetrahydronaphthalen-2-yl)-1,3,4-oxadiazol-2-yl)benzamide]
100 ± 1	Cc1ccc(C(=O)Nc2nnc(-c3ccc4c(c3)OCCO4)o2)cc1C [AC10035, N-(5-(2,3-dihydrobenzo[b][1,4]dioxin-6-yl)-1,3,4-oxadiazol-2-yl)-3,4-dimethylbenzamide]
100 ± 1	Cc1ccc(C(=O)Nc2nnc(-c3ccc4c(c3)CCCC4)o2)cc1 [AC10033, 4-methyl-N-(5-(5,6,7,8-tetrahydronaphthalen-2-yl)-1,3,4-oxadiazol-2-yl)benzamide]

Same assay, conditions: HEK-AC1 cells; read-out: HEK-AC1 IC50

SMILES	IC50 [µM]
Cc1ccc(C(=O)Nc2nnc(C3CCCCC3)o2)cc1 [AC10032, N-(5-cyclohexyl-1,3,4-oxadiazol-2-yl)-4-methylbenzamide]	15.8 ± 2
COc1cccc(C(=O)Nc2nnc(-c3ccc(F)cc3)o2)c1 [AC10034, N-(5-(4-fluorophenyl)-1,3,4-oxadiazol-2-yl)-3-methoxybenzamide]	15 ± 4
COc1cccc(C(=O)Nc2nnc(-c3ccc4c(c3)OCCO4)o2)c1 [AC10038, N-(5-(2,3-dihydrobenzo[b][1,4]dioxin-6-yl)-1,3,4-oxadiazol-2-yl)-3-methoxybenzamide]	9.6 ± 3
COc1ccc(C(=O)Nc2nnc(C3CCCCC3)o2)cc1 [AC10040, N-(5-cyclohexyl-1,3,4-oxadiazol-2-yl)-4-methoxybenzamide]	22 ± 3
CCc1ccc(C(=O)Nc2nnc(-c3ccc(F)cc3)o2)cc1 [AC10044, 4-ethyl-N-(5-(4-fluorophenyl)-1,3,4-oxadiazol-2-yl)benzamide]	8.2 ± 2

Continued, values first:

IC50 [µM]	SMILES
7.5 ± 0.7	CC(C)Oc1ccc(C(=O)Nc2nnc(-c3ccc4c(c3)OCCO4)o2)cc1 [AC10037, N-(5-(2,3-dihydrobenzo[b][1,4]dioxin-6-yl)-1,3,4-oxadiazol-2-yl)-4-isopropoxybenzamide]
7.3 ± 2	Cc1ccc(C(=O)Nc2nnc(-c3ccc(F)cc3)o2)cc1 [AC10031, N-(5-(4-fluorophenyl)-1,3,4-oxadiazol-2-yl)-4-methylbenzamide]
7.3 ± 3	CCc1ccc(C(=O)Nc2nnc(C3CCCCC3)o2)cc1 [AC10045, N-(5-cyclohexyl-1,3,4-oxadiazol-2-yl)-4-ethylbenzamide]
6.4 ± 1	COc1ccc(C(=O)Nc2nnc(-c3ccc4c(c3)CCCC4)o2)cc1 [AC10041, 4-methoxy-N-(5-(5,6,7,8-tetrahydronaphthalen-2-yl)-1,3,4-oxadiazol-2-yl)benzamide]
5.3 ± 0.4	Cc1ccc(C(=O)Nc2nnc(-c3ccc4c(c3)OCCO4)o2)cc1C [AC10035, N-(5-(2,3-dihydrobenzo[b][1,4]dioxin-6-yl)-1,3,4-oxadiazol-2-yl)-3,4-dimethylbenzamide]
3.4 ± 1	Cc1ccc(C(=O)Nc2nnc(-c3ccc4c(c3)CCCC4)o2)cc1 [AC10033, 4-methyl-N-(5-(5,6,7,8-tetrahydronaphthalen-2-yl)-1,3,4-oxadiazol-2-yl)benzamide]

These compounds were tested against T2, hAC8 (Homo sapiens, UniProt P40145) (assay: Cyclic AMP accumulation in HEK cells stably expressing AC8, stimulated with A23187 (HTRF)). Conditions: HEK293; HEK-AC8 cells, 30 μM.
T2 construct: expressed in transfected cells
T2 sequence (P40145 whole entry): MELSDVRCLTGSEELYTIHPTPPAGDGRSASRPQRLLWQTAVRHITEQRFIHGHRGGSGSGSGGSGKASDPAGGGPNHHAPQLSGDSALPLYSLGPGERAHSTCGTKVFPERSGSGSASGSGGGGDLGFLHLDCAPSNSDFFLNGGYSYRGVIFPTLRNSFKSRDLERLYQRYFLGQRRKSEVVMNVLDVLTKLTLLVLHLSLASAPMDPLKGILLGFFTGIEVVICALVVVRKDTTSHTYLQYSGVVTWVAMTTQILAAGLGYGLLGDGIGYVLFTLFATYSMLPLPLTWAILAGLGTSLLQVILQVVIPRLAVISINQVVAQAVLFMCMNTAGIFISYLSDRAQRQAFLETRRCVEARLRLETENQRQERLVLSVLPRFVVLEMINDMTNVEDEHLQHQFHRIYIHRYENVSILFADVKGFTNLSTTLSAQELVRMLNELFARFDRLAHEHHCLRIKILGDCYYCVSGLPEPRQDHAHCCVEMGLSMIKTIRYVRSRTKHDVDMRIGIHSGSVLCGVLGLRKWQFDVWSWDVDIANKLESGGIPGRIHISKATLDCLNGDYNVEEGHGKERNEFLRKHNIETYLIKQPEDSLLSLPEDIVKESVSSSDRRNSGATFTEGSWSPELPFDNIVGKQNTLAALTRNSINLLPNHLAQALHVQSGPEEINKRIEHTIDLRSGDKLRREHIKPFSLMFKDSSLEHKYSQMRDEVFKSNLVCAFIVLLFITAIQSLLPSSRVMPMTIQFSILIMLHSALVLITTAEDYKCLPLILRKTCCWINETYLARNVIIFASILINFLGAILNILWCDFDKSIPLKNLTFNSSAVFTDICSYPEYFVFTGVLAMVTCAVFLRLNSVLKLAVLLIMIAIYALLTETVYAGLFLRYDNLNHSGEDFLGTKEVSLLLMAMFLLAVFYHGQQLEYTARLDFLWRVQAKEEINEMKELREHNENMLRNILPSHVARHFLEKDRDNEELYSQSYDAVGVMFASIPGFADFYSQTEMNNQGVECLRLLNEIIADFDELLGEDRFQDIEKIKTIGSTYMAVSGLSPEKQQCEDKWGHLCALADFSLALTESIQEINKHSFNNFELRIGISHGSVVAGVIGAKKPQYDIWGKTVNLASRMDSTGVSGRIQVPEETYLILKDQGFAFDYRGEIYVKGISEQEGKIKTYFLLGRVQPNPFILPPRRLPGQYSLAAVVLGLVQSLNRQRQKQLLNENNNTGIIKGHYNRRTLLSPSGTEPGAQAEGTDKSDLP
Assay type: cell-based
Procedure: as §1, §2, §3, §4

SMILES	inhibition at 30 µM [%]
Cc1ccc(C(=O)Nc2nnc(C3CCCCC3)o2)cc1 [AC10032, N-(5-cyclohexyl-1,3,4-oxadiazol-2-yl)-4-methylbenzamide]	1 ± 12
COc1cccc(C(=O)Nc2nnc(-c3ccc(F)cc3)o2)c1 [AC10034, N-(5-(4-fluorophenyl)-1,3,4-oxadiazol-2-yl)-3-methoxybenzamide]	23 ± 5
O=C(Nc1nnc(-c2ccc(F)cc2)o1)c1ccc(S(=O)(=O)N2CCCCC2)cc1 [AC10036, N-(5-(4-fluorophenyl)-1,3,4-oxadiazol-2-yl)-4-(piperidin-1-ylsulfonyl)benzamide]	38 ± 7
COc1cccc(C(=O)Nc2nnc(-c3ccc4c(c3)OCCO4)o2)c1 [AC10038, N-(5-(2,3-dihydrobenzo[b][1,4]dioxin-6-yl)-1,3,4-oxadiazol-2-yl)-3-methoxybenzamide]	18 ± 10
COc1ccc(C(=O)Nc2nnc(-c3ccc(F)cc3)o2)cc1 [AC10039, N-(5-(4-fluorophenyl)-1,3,4-oxadiazol-2-yl)-4-methoxybenzamide]	20 ± 6
COc1ccc(C(=O)Nc2nnc(C3CCCCC3)o2)cc1 [AC10040, N-(5-cyclohexyl-1,3,4-oxadiazol-2-yl)-4-methoxybenzamide]	6 ± 16
CCc1ccc(C(=O)Nc2nnc(-c3ccc(F)cc3)o2)cc1 [AC10044, 4-ethyl-N-(5-(4-fluorophenyl)-1,3,4-oxadiazol-2-yl)benzamide]	32 ± 12

Next, values leading:

inhibition at 30 µM [%]	SMILES
39 ± 7	CC(C)Oc1ccc(C(=O)Nc2nnc(-c3ccc4c(c3)OCCO4)o2)cc1 [AC10037, N-(5-(2,3-dihydrobenzo[b][1,4]dioxin-6-yl)-1,3,4-oxadiazol-2-yl)-4-isopropoxybenzamide]
31 ± 6	Cc1ccc(C(=O)Nc2nnc(-c3ccc(F)cc3)o2)cc1 [AC10031, N-(5-(4-fluorophenyl)-1,3,4-oxadiazol-2-yl)-4-methylbenzamide]
44 ± 7	CCc1ccc(C(=O)Nc2nnc(C3CCCCC3)o2)cc1 [AC10045, N-(5-cyclohexyl-1,3,4-oxadiazol-2-yl)-4-ethylbenzamide]
34 ± 11	COc1ccc(C(=O)Nc2nnc(-c3ccc4c(c3)CCCC4)o2)cc1 [AC10041, 4-methoxy-N-(5-(5,6,7,8-tetrahydronaphthalen-2-yl)-1,3,4-oxadiazol-2-yl)benzamide]
61 ± 1	Cc1ccc(C(=O)Nc2nnc(-c3ccc4c(c3)OCCO4)o2)cc1C [AC10035, N-(5-(2,3-dihydrobenzo[b][1,4]dioxin-6-yl)-1,3,4-oxadiazol-2-yl)-3,4-dimethylbenzamide]
60 ± 8	Cc1ccc(C(=O)Nc2nnc(-c3ccc4c(c3)CCCC4)o2)cc1 [AC10033, 4-methyl-N-(5-(5,6,7,8-tetrahydronaphthalen-2-yl)-1,3,4-oxadiazol-2-yl)benzamide]

Same assay, conditions: HEK-AC8 cells; read-out: HEK-AC8 IC50

SMILES	IC50 [µM]
COc1cccc(C(=O)Nc2nnc(-c3ccc(F)cc3)o2)c1 [AC10034, N-(5-(4-fluorophenyl)-1,3,4-oxadiazol-2-yl)-3-methoxybenzamide]	101 ± 14
O=C(Nc1nnc(-c2ccc(F)cc2)o1)c1ccc(S(=O)(=O)N2CCCCC2)cc1 [AC10036, N-(5-(4-fluorophenyl)-1,3,4-oxadiazol-2-yl)-4-(piperidin-1-ylsulfonyl)benzamide]	39 ± 16
COc1cccc(C(=O)Nc2nnc(-c3ccc4c(c3)OCCO4)o2)c1 [AC10038, N-(5-(2,3-dihydrobenzo[b][1,4]dioxin-6-yl)-1,3,4-oxadiazol-2-yl)-3-methoxybenzamide]	115 ± 43
CCc1ccc(C(=O)Nc2nnc(-c3ccc(F)cc3)o2)cc1 [AC10044, 4-ethyl-N-(5-(4-fluorophenyl)-1,3,4-oxadiazol-2-yl)benzamide]	51 ± 7

Results, then the compound that gave them:

IC50 [µM]	SMILES
56 ± 23	CC(C)Oc1ccc(C(=O)Nc2nnc(-c3ccc4c(c3)OCCO4)o2)cc1 [AC10037, N-(5-(2,3-dihydrobenzo[b][1,4]dioxin-6-yl)-1,3,4-oxadiazol-2-yl)-4-isopropoxybenzamide]
61 ± 33	Cc1ccc(C(=O)Nc2nnc(-c3ccc(F)cc3)o2)cc1 [AC10031, N-(5-(4-fluorophenyl)-1,3,4-oxadiazol-2-yl)-4-methylbenzamide]
71 ± 14	CCc1ccc(C(=O)Nc2nnc(C3CCCCC3)o2)cc1 [AC10045, N-(5-cyclohexyl-1,3,4-oxadiazol-2-yl)-4-ethylbenzamide]
46 ± 13	COc1ccc(C(=O)Nc2nnc(-c3ccc4c(c3)CCCC4)o2)cc1 [AC10041, 4-methoxy-N-(5-(5,6,7,8-tetrahydronaphthalen-2-yl)-1,3,4-oxadiazol-2-yl)benzamide]
14 ± 3	Cc1ccc(C(=O)Nc2nnc(-c3ccc4c(c3)OCCO4)o2)cc1C [AC10035, N-(5-(2,3-dihydrobenzo[b][1,4]dioxin-6-yl)-1,3,4-oxadiazol-2-yl)-3,4-dimethylbenzamide]
25 ± 6	Cc1ccc(C(=O)Nc2nnc(-c3ccc4c(c3)CCCC4)o2)cc1 [AC10033, 4-methyl-N-(5-(5,6,7,8-tetrahydronaphthalen-2-yl)-1,3,4-oxadiazol-2-yl)benzamide]
